Results taken from patent publication US7816134B2, “Method of extensive culture of antigen-specific cytotoxic T cells” (Takara Bio Inc., priority 2000, dated 2010).
Where two headings read alike, the source gives them in different places.

How the values were obtained:
[1] = test system: anti-influenza virus memory CTLs (FluMPA2.1); format: cell-based, human
[2] = test system: HLA-A2.1-having EBV transformed B-cells (221A2.1); conditions: for Cytotoxic Activity (%) E/T Ratio 1 / Cytotoxic Activity (%) E/T Ratio 3 / Cytotoxic Activity (%) E/T Ratio 10 / Cytotoxic Activity (%) E/T Ratio 2.5 / Cytotoxic Activity (%) E/T Ratio 5: FluMPA2.1
[3] = test system: HLA-A2.1-having EBV transformed B-cells (221A2.1); conditions: for Cytotoxic Activity (%) E/T Ratio 3 / Cytotoxic Activity (%) E/T Ratio 10 / Cytotoxic Activity (%) E/T Ratio 1 / Cytotoxic Activity (%) E/T Ratio 30: FluMPA2.1
[4] = Example 2-6, sample during CTL induction −, during expansion + (10 μg/ml)
[5] = Example 1-2, sample 10 μg/ml during CTL induction +, during culture with IL-2 +, peptide addition +
[6] = Example 1-2, sample 10 μg/ml during CTL induction +, during culture with IL-2 +, peptide addition −
[7] = sample 10 μg/ml during CTL induction and during continuous culture, 10 to 14 days
[8] = Example 2-3, sample 10 μg/ml during CTL induction +, during expansion +, peptide addition +
[9] = Example 2-3, sample 10 μg/ml during CTL induction +, during expansion +, peptide addition −
[10] = Example 2-6, sample during CTL induction −, during expansion + (10 μg/ml), peptide addition +
[11] = Example 2-6, sample during CTL induction −, during expansion + (10 μg/ml), peptide addition −
[12] = Example 2-7, sample 10 μg/ml during CTL induction +, during expansion +, peptide addition +
[13] = Example 2-7, sample 10 μg/ml during CTL induction +, during expansion +, peptide addition −
[14] = Example 2-7, sample 10 μg/ml during CTL induction +, during expansion −, peptide addition +
[15] = Example 2-7, sample 10 μg/ml during CTL induction +, during expansion −, peptide addition −
[16] = Example 2-4, sample 10 μg/ml during CTL induction +, during expansion +
[17] = Example 1-3, sample 10 μg/ml during CTL induction +, during culture with IL-2 +, peptide addition +
[18] = Example 1-3, sample 10 μg/ml during CTL induction +, during culture with IL-2 +, peptide addition −
[19] = Example 1-5, sample during CTL induction −, during culture with IL-2 + (10 μg/ml), peptide addition +
[20] = Example 1-5, sample during CTL induction −, during culture with IL-2 + (10 μg/ml), peptide addition −
[21] = sample 10 μg/ml only during continuous culture
[22] = Example 2-4, sample 10 μg/ml during CTL induction +, during expansion +, peptide addition +
[23] = Example 2-4, sample 10 μg/ml during CTL induction +, during expansion +, peptide addition −
[24] = Example 1-4, sample 10 μg/ml during CTL induction +, during culture with IL-2 +, peptide addition +
[25] = Example 1-4, sample 10 μg/ml during CTL induction +, during culture with IL-2 +, peptide addition −

CC1OC(OC2C(OC3C(OC4C(OS(=O)(=O)O)C(C)OC(O)C4OS(=O)(=O)O)OC(C)C(OS(=O)(=O)O)C3OC3OC(C)C(OS(=O)(=O)O)C(OS(=O)(=O)O)C3OS(=O)(=O)O)OC(C)C(OS(=O)(=O)O)C2OC2OC(C)C(OS(=O)(=O)O)C(OC3OC(C)C(OS(=O)(=O)O)C(O)C3OS(=O)(=O)O)C2OS(=O)(=O)O)C(O)C(OS(=O)(=O)O)C1O (centres unmarked) [7-12SFd-F]
Expansion Ratio ([1]; Example 2-3, sample 10 μg/ml during CTL induction +, during expansion +, 14 days): × 178 | Expansion Ratio [1, 4]: × 310 | Expansion Ratio ([1]; Example 2-7, sample 10 μg/ml during CTL induction +, during expansion +): × 258 | Expansion Ratio ([1]; Example 2-7, sample 10 μg/ml during CTL induction +, during expansion −): × 283 | Cytotoxic Activity (%) E/T Ratio 1 [2, 5]: 12.0% | Cytotoxic Activity (%) E/T Ratio 3 [2, 5]: 37.9% | Cytotoxic Activity (%) E/T Ratio 10 [2, 5]: 60.7% | Cytotoxic Activity (%) E/T Ratio 1 [2, 6]: 0.3% | Cytotoxic Activity (%) E/T Ratio 3 [2, 6]: 2.2% | Cytotoxic Activity (%) E/T Ratio 10 [2, 6]: 11.7% | cytotoxic activity after continuous culture (in words) [2, 7]: maintaining an antigen-specific cytotoxic activity | Cytotoxic Activity (%) E/T Ratio 3 [3, 8]: 67.0% | Cytotoxic Activity (%) E/T Ratio 10 [3, 8]: 93.7% | Cytotoxic Activity (%) E/T Ratio 3 [3, 9]: 2.8% | Cytotoxic Activity (%) E/T Ratio 10 [3, 9]: 0% | Cytotoxic Activity (%) E/T Ratio 1 [3, 10]: 14.1% | Cytotoxic Activity (%) E/T Ratio 3 [3, 10]: 20.1% | Cytotoxic Activity (%) E/T Ratio 10 [3, 10]: 41.7% | Cytotoxic Activity (%) E/T Ratio 30 [3, 10]: 64.6% | Cytotoxic Activity (%) E/T Ratio 1 [3, 11]: 2.7% | Cytotoxic Activity (%) E/T Ratio 3 [3, 11]: 0% | Cytotoxic Activity (%) E/T Ratio 10 [3, 11]: 1.0% | Cytotoxic Activity (%) E/T Ratio 30 [3, 11]: 3.5% | Cytotoxic Activity (%) E/T Ratio 1 [3, 12]: 9.4% | Cytotoxic Activity (%) E/T Ratio 3 [3, 12]: 23.4% | Cytotoxic Activity (%) E/T Ratio 10 [3, 12]: 44.2% | Cytotoxic Activity (%) E/T Ratio 30 [3, 12]: 82.1% | Cytotoxic Activity (%) E/T Ratio 1 [3, 13]: 0% | Cytotoxic Activity (%) E/T Ratio 3 [3, 13]: 0% | Cytotoxic Activity (%) E/T Ratio 10 [3, 13]: 0% | Cytotoxic Activity (%) E/T Ratio 30 [3, 13]: 1.6% | Cytotoxic Activity (%) E/T Ratio 1 [3, 14]: 14.0% | Cytotoxic Activity (%) E/T Ratio 3 [3, 14]: 34.6% | Cytotoxic Activity (%) E/T Ratio 10 [3, 14]: 50.4% | Cytotoxic Activity (%) E/T Ratio 30 [3, 14]: 83.5% | Cytotoxic Activity (%) E/T Ratio 1 [3, 15]: 6.7% | Cytotoxic Activity (%) E/T Ratio 3 [3, 15]: 6.5% | Cytotoxic Activity (%) E/T Ratio 10 [3, 15]: 9.3% | Cytotoxic Activity (%) E/T Ratio 30 [3, 15]: 9.8% | cytotoxic activity after expansion for 14 days (in words) ([3]; sample 10 μg/ml during CTL induction and during expansion, no EBV-B cells): maintained specific, high cytotoxic activity

non-swellable alginic acid
Expansion Ratio [1, 16]: × 220 | Expansion Ratio [1, 4]: × 335 | Cytotoxic Activity (%) E/T Ratio 1 [2, 17]: 28.1% | Cytotoxic Activity (%) E/T Ratio 3 [2, 17]: 52.7% | Cytotoxic Activity (%) E/T Ratio 10 [2, 17]: 77.1% | Cytotoxic Activity (%) E/T Ratio 1 [2, 18]: 12.9% | Cytotoxic Activity (%) E/T Ratio 3 [2, 18]: 24.8% | Cytotoxic Activity (%) E/T Ratio 10 [2, 18]: 14.0% | Cytotoxic Activity (%) E/T Ratio 1 [2, 19]: 9.5% | Cytotoxic Activity (%) E/T Ratio 3 [2, 19]: 13.8% | Cytotoxic Activity (%) E/T Ratio 10 [2, 19]: 24.9% | Cytotoxic Activity (%) E/T Ratio 1 [2, 20]: 3.9% | Cytotoxic Activity (%) E/T Ratio 3 [2, 20]: 4.6% | Cytotoxic Activity (%) E/T Ratio 10 [2, 20]: 6.1% | cytotoxic activity after continuous culture (in words) [2, 21]: maintaining an antigen-specific cytotoxic activity | Cytotoxic Activity (%) E/T Ratio 3 [3, 22]: 63.5% | Cytotoxic Activity (%) E/T Ratio 10 [3, 22]: 81.4% | Cytotoxic Activity (%) E/T Ratio 3 [3, 23]: 26.2% | Cytotoxic Activity (%) E/T Ratio 10 [3, 23]: 26.8% | Cytotoxic Activity (%) E/T Ratio 1 [3, 10]: 13.5% | Cytotoxic Activity (%) E/T Ratio 3 [3, 10]: 24.1% | Cytotoxic Activity (%) E/T Ratio 10 [3, 10]: 50.4% | Cytotoxic Activity (%) E/T Ratio 30 [3, 10]: 76.0% | Cytotoxic Activity (%) E/T Ratio 1 [3, 11]: 0.5% | Cytotoxic Activity (%) E/T Ratio 3 [3, 11]: 5.2% | Cytotoxic Activity (%) E/T Ratio 10 [3, 11]: 6.5% | Cytotoxic Activity (%) E/T Ratio 30 [3, 11]: 14.4%

pectic acid
Expansion Ratio [1, 16]: × 160 | Expansion Ratio [1, 4]: × 350 | Cytotoxic Activity (%) E/T Ratio 2.5 [2, 24]: 32.0% | Cytotoxic Activity (%) E/T Ratio 5 [2, 24]: 49.4% | Cytotoxic Activity (%) E/T Ratio 2.5 [2, 25]: 3.4% | Cytotoxic Activity (%) E/T Ratio 5 [2, 25]: 5.5% | Cytotoxic Activity (%) E/T Ratio 10 [2, 19]: 16.5% | Cytotoxic Activity (%) E/T Ratio 10 [2, 20]: 0% | cytotoxic activity after continuous culture (in words) [2, 7]: effects for maintaining cytotoxic activity | cytotoxic activity after continuous culture (in words) [2, 21]: maintaining an antigen-specific cytotoxic activity | Cytotoxic Activity (%) E/T Ratio 3 [3, 22]: 47.0% | Cytotoxic Activity (%) E/T Ratio 10 [3, 22]: 69.8% | Cytotoxic Activity (%) E/T Ratio 3 [3, 23]: 11.6% | Cytotoxic Activity (%) E/T Ratio 10 [3, 23]: 7.3% | Cytotoxic Activity (%) E/T Ratio 1 [3, 10]: 18.2% | Cytotoxic Activity (%) E/T Ratio 3 [3, 10]: 33.3% | Cytotoxic Activity (%) E/T Ratio 10 [3, 10]: 64.2% | Cytotoxic Activity (%) E/T Ratio 30 [3, 10]: 87.8% | Cytotoxic Activity (%) E/T Ratio 1 [3, 11]: 2.3% | Cytotoxic Activity (%) E/T Ratio 3 [3, 11]: 4.1% | Cytotoxic Activity (%) E/T Ratio 10 [3, 11]: 8.2% | Cytotoxic Activity (%) E/T Ratio 30 [3, 11]: 15.9%

sodium chondroitin sulfate A
Expansion Ratio [1, 16]: × 280 | Expansion Ratio [1, 4]: × 383 | Cytotoxic Activity (%) E/T Ratio 10 [2, 17]: 75.5% | Cytotoxic Activity (%) E/T Ratio 10 [2, 18]: 21.1% | cytotoxic activity after continuous culture (in words) [2, 7]: continuous culture of CTLs having an antigen-specific cytotoxic activity can be carried out | Cytotoxic Activity (%) E/T Ratio 3 [3, 22]: 56.7% | Cytotoxic Activity (%) E/T Ratio 10 [3, 22]: 89.0% | Cytotoxic Activity (%) E/T Ratio 3 [3, 23]: 0% | Cytotoxic Activity (%) E/T Ratio 10 [3, 23]: 5.3% | Cytotoxic Activity (%) E/T Ratio 1 [3, 10]: 8.0% | Cytotoxic Activity (%) E/T Ratio 3 [3, 10]: 18.7% | Cytotoxic Activity (%) E/T Ratio 10 [3, 10]: 36.6% | Cytotoxic Activity (%) E/T Ratio 30 [3, 10]: 67.6% | Cytotoxic Activity (%) E/T Ratio 1 [3, 11]: 6.3% | Cytotoxic Activity (%) E/T Ratio 3 [3, 11]: 5.6% | Cytotoxic Activity (%) E/T Ratio 10 [3, 11]: 7.5% | Cytotoxic Activity (%) E/T Ratio 30 [3, 11]: 18.8%

sodium chondroitin sulfate B
Expansion Ratio [1, 16]: × 178 | Expansion Ratio [1, 4]: × 383 | Cytotoxic Activity (%) E/T Ratio 2.5 [2, 24]: 28.1% | Cytotoxic Activity (%) E/T Ratio 5 [2, 24]: 38.1% | Cytotoxic Activity (%) E/T Ratio 10 [2, 24]: 60.7% | Cytotoxic Activity (%) E/T Ratio 2.5 [2, 25]: 0% | Cytotoxic Activity (%) E/T Ratio 5 [2, 25]: 0% | Cytotoxic Activity (%) E/T Ratio 10 [2, 25]: 0.8% | Cytotoxic Activity (%) E/T Ratio 10 [2, 19]: 24.0% | Cytotoxic Activity (%) E/T Ratio 10 [2, 20]: 4.6% | cytotoxic activity after continuous culture (in words) [2, 7]: effects for maintaining cytotoxic activity | cytotoxic activity after continuous culture (in words) [2, 21]: maintaining an antigen-specific cytotoxic activity | Cytotoxic Activity (%) E/T Ratio 3 [3, 22]: 57.8% | Cytotoxic Activity (%) E/T Ratio 10 [3, 22]: 98.2% | Cytotoxic Activity (%) E/T Ratio 3 [3, 23]: 1.0% | Cytotoxic Activity (%) E/T Ratio 10 [3, 23]: 10.7% | Cytotoxic Activity (%) E/T Ratio 1 [3, 10]: 15.2% | Cytotoxic Activity (%) E/T Ratio 3 [3, 10]: 27.2% | Cytotoxic Activity (%) E/T Ratio 10 [3, 10]: 48.1% | Cytotoxic Activity (%) E/T Ratio 30 [3, 10]: 76.2% | Cytotoxic Activity (%) E/T Ratio 1 [3, 11]: 3.9% | Cytotoxic Activity (%) E/T Ratio 3 [3, 11]: 4.4% | Cytotoxic Activity (%) E/T Ratio 10 [3, 11]: 8.3% | Cytotoxic Activity (%) E/T Ratio 30 [3, 11]: 11.8%

sodium salt of sulfated fucose
Expansion Ratio [1, 16]: × 240 | Expansion Ratio [1, 4]: × 448 | Cytotoxic Activity (%) E/T Ratio 2.5 [2, 24]: 17.6% | Cytotoxic Activity (%) E/T Ratio 5 [2, 24]: 36.6% | Cytotoxic Activity (%) E/T Ratio 10 [2, 24]: 55.3% | Cytotoxic Activity (%) E/T Ratio 2.5 [2, 25]: 0% | Cytotoxic Activity (%) E/T Ratio 5 [2, 25]: 0% | Cytotoxic Activity (%) E/T Ratio 10 [2, 25]: 0.2% | Cytotoxic Activity (%) E/T Ratio 1 [2, 19]: 8.9% | Cytotoxic Activity (%) E/T Ratio 3 [2, 19]: 12.6% | Cytotoxic Activity (%) E/T Ratio 10 [2, 19]: 26.4% | Cytotoxic Activity (%) E/T Ratio 1 [2, 20]: 0% | Cytotoxic Activity (%) E/T Ratio 3 [2, 20]: 0.4% | Cytotoxic Activity (%) E/T Ratio 10 [2, 20]: 3.3% | cytotoxic activity after continuous culture (in words) [2, 7]: effects for maintaining cytotoxic activity | cytotoxic activity after continuous culture (in words) [2, 21]: maintaining an antigen-specific cytotoxic activity | Cytotoxic Activity (%) E/T Ratio 10 [3, 22]: 70.2% | Cytotoxic Activity (%) E/T Ratio 10 [3, 23]: 23.3% | Cytotoxic Activity (%) E/T Ratio 10 [3, 10]: 32.5% | Cytotoxic Activity (%) E/T Ratio 30 [3, 10]: 64.9% | Cytotoxic Activity (%) E/T Ratio 10 [3, 11]: 0% | Cytotoxic Activity (%) E/T Ratio 30 [3, 11]: 1.3%
